PubChem BioAssay AID1919007 (Molecular Pharmacology Branch, DTP, NCI, 2023)
“And” between values parts separate entries of the source, which are not always exact repeats. Equal values may be shown once.

Test system: A498 complex spheroids with HUVEC/MSC, growth
Assay: Anticancer human tumor A498 cell line growth inhibition [AhR];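 note: seven day exposure starting three days after spheroid seeding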;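 for viability, T/C: luminescence signal used as a surrogate for viable cells; luminescence viability scaled so 100% equals DMSO vehicle wells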
Conditions: for viability, T/C: stronger effect = lower value
Procedure, shortened: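 Agents were dosed in half-log steps down from roughly clinical Cmax, or from 10 microM where Cmax was unknown, alone and with AhR antagonists. Read-out: percent test/control growth of tumor spheroids containing HUVEC and MSC stromal cells.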

[1] = curve of first compound, second compound 0.1 µM
[2] = curve of first compound, second compound 0.316 µM
[3] = curve of first compound, second compound 1 µM
[4] = curve of first compound, second compound 3.16 µM
[5] = curve of first compound, second compound 10 µM
[6] = second compound 0.1 µM, first compound 0.0316 µM
[7] = second compound 0.1 µM, first compound 0.1 µM
[8] = second compound 0.316 µM, first compound 0.0316 µM
[9] = second compound 0.316 µM, first compound 0.1 µM
[10] = second compound 1 µM, first compound 0.0316 µM
[11] = second compound 1 µM, first compound 0.1 µM
[12] = second compound 3.16 µM, first compound 0.0316 µM
[13] = second compound 3.16 µM, first compound 0.1 µM
[14] = second compound 10 µM, first compound 0.0316 µM
[15] = second compound 10 µM, first compound 0.1 µM

`Cn1ncnc1C1c2n[nH]c(=O)c3cc(F)cc(c23)NC1c1ccc(F)cc1` (configuration not stated) + Cc1cncc(-c2nc(NCCc3c[nH]c4ccccc34)c3ncn(C(C)C)c3n2)c1 was tested. Which IC50 [1] did it give?
Its IC50 is > 100 nM.

And the IC50 [2]?
Its IC50 is > 100 nM.

And the IC50 [3]?
Its IC50 is > 100 nM.

What about the IC50 [4] of the same compound?
Its IC50 is > 100 nM.

And the IC50 [5]?
The IC50 was < 0.316 nM.

What about the viability, T/C (second compound 0.1 µM, first compound 0.000316 µM) of the same compound?
Its viability, T/C is 96.5%.

And the viability, T/C (second compound 0.1 µM, first compound 0.001 µM)?
Its viability, T/C is 96.6%.

What about the viability, T/C (second compound 0.1 µM, first compound 0.00316 µM) of the same compound?
The viability, T/C was 96.6%.

What about the viability, T/C (second compound 0.1 µM, first compound 0.01 µM) of the same compound?
The viability, T/C was 89%.

And the viability, T/C [6]?
The viability, T/C was 87%.

And the viability, T/C [7]?
The viability, T/C was 94.1%.

And the viability, T/C (second compound 0.316 µM, first compound 0.000316 µM)?
The viability, T/C was 97.1%.

And the viability, T/C (second compound 0.316 µM, first compound 0.001 µM)?
Its viability, T/C is 99.2%.

And the viability, T/C (second compound 0.316 µM, first compound 0.00316 µM)?
Its viability, T/C is 92.9%.

What about the viability, T/C (second compound 0.316 µM, first compound 0.01 µM) of the same compound?
The viability, T/C was 92.3%.

And the viability, T/C [8]?
Its viability, T/C is 95.2%.

And the viability, T/C [9]?
Its viability, T/C is 92.3%.

What about the viability, T/C (second compound 1 µM, first compound 0.000316 µM) of the same compound?
The viability, T/C was 88.4%.

What about the viability, T/C (second compound 1 µM, first compound 0.001 µM) of the same compound?
Its viability, T/C is 98.9%.

What about the viability, T/C (second compound 1 µM, first compound 0.00316 µM) of the same compound?
Its viability, T/C is 91.2%.

What about the viability, T/C (second compound 1 µM, first compound 0.01 µM) of the same compound?
Its viability, T/C is 84.4%.

What about the viability, T/C [10] of the same compound?
Its viability, T/C is 85.5%.

And the viability, T/C [11]?
The viability, T/C was 89.8%.

What about the viability, T/C (second compound 3.16 µM, first compound 0.000316 µM) of the same compound?
The viability, T/C was 60.6%.

And the viability, T/C (second compound 3.16 µM, first compound 0.001 µM)?
Its viability, T/C is 63.6%.

What about the viability, T/C (second compound 3.16 µM, first compound 0.00316 µM) of the same compound?
The viability, T/C was 65%.

And the viability, T/C (second compound 3.16 µM, first compound 0.01 µM)?
Its viability, T/C is 70.1%.

And the viability, T/C [12]?
Its viability, T/C is 59.8%.

And the viability, T/C [13]?
The viability, T/C was 67.8%.

What about the viability, T/C (second compound 10 µM, first compound 0.000316 µM) of the same compound?
Its viability, T/C is 5.06%.

What about the viability, T/C (second compound 10 µM, first compound 0.001 µM) of the same compound?
The viability, T/C was 6.23%.

And the viability, T/C (second compound 10 µM, first compound 0.00316 µM)?
The viability, T/C was 6.28%.

What about the viability, T/C (second compound 10 µM, first compound 0.01 µM) of the same compound?
The viability, T/C was 7.11%.

What about the viability, T/C [14] of the same compound?
Its viability, T/C is 6.12%.

And the viability, T/C [15]?
The viability, T/C was 8.13%.

With `CC1(C)CCC(CN2CCN(c3ccc(C(=O)NS(=O)(=O)c4ccc(NCC5CCOCC5)c([N+](=O)[O-])c4)c(Oc4cnc5[nH]ccc5c4)c3)CC2)=C(c2ccc(Cl)cc2)C1` + Cc1cncc(-c2nc(NCCc3c[nH]c4ccccc34)c3ncn(C(C)C)c3n2)c1 as the compound, how does the IC50 [1] read?
Its IC50 is 5370 nM.

And the IC50 [2]?
Its IC50 is 5320 nM.

What about the IC50 [3] of the same compound?
Its IC50 is 5030 nM.

And the IC50 [4]?
The IC50 was < 31.6 nM.

What about the IC50 [5] of the same compound?
Its IC50 is < 31.6 nM.

What about the viability, T/C [6] of the same compound?
Its viability, T/C is 88.5%.

And the viability, T/C [7]?
The viability, T/C was 90%.

What about the viability, T/C (second compound 0.1 µM, first compound 0.316 µM) of the same compound?
The viability, T/C was 85.3%.

And the viability, T/C (second compound 0.1 µM, first compound 1 µM)?
The viability, T/C was 78.6%.

What about the viability, T/C (second compound 0.1 µM, first compound 3.16 µM) of the same compound?
Its viability, T/C is 72.3%.

And the viability, T/C (second compound 0.1 µM, first compound 10 µM)?
Its viability, T/C is 26%.

What about the viability, T/C [8] of the same compound?
The viability, T/C was 89.2%.

And the viability, T/C [9]?
Its viability, T/C is 92.2%.

What about the viability, T/C (second compound 0.316 µM, first compound 0.316 µM) of the same compound?
The viability, T/C was 95.1%.

What about the viability, T/C (second compound 0.316 µM, first compound 1 µM) of the same compound?
Its viability, T/C is 78.3%.

And the viability, T/C (second compound 0.316 µM, first compound 3.16 µM)?
Its viability, T/C is 71%.

What about the viability, T/C (second compound 0.316 µM, first compound 10 µM) of the same compound?
The viability, T/C was 26.6%.

And the viability, T/C [10]?
The viability, T/C was 84.7%.

What about the viability, T/C [11] of the same compound?
The viability, T/C was 90.3%.

And the viability, T/C (second compound 1 µM, first compound 0.316 µM)?
Its viability, T/C is 87%.

And the viability, T/C (second compound 1 µM, first compound 1 µM)?
Its viability, T/C is 73.5%.

What about the viability, T/C (second compound 1 µM, first compound 3.16 µM) of the same compound?
Its viability, T/C is 66.9%.

And the viability, T/C (second compound 1 µM, first compound 10 µM)?
The viability, T/C was 28.3%.

What about the viability, T/C [12] of the same compound?
Its viability, T/C is 43.6%.

And the viability, T/C [13]?
The viability, T/C was 43.4%.

And the viability, T/C (second compound 3.16 µM, first compound 0.316 µM)?
Its viability, T/C is 48.5%.

And the viability, T/C (second compound 3.16 µM, first compound 1 µM)?
Its viability, T/C is 40.9%.

What about the viability, T/C (second compound 3.16 µM, first compound 3.16 µM) of the same compound?
The viability, T/C was 39.6%.

And the viability, T/C (second compound 3.16 µM, first compound 10 µM)?
Its viability, T/C is 24.5%.

What about the viability, T/C [14] of the same compound?
The viability, T/C was 2.24%.

And the viability, T/C [15]?
The viability, T/C was 2.27%.

And the viability, T/C (second compound 10 µM, first compound 0.316 µM)?
The viability, T/C was 3.12%.

And the viability, T/C (second compound 10 µM, first compound 1 µM)?
The viability, T/C was 4.57%.

And the viability, T/C (second compound 10 µM, first compound 3.16 µM)?
The viability, T/C was 3.12%.

And the viability, T/C (second compound 10 µM, first compound 10 µM)?
The viability, T/C was 5.62%.

What does the source list for `O=C(c1cc(Cc2n[nH]c(=O)c3ccccc23)ccc1F)N1CCN(C(=O)C2CC2)CC1`?
viability, T/C (compound 0.0316 µM): 100% and 101% (2×); viability, T/C (compound 0.1 µM): 103% and 100% and 104%; viability, T/C (compound 0.316 µM): 99.4% and 99.2% and 99.5%; viability, T/C (compound 1 µM): 108% and 99.4% and 100%; viability, T/C (compound 3.16 µM): 106% and 98.4% and 101%; viability, T/C (compound 10 µM): 94% and 92.4% and 92.1%; IC50 (curve of compound): > 10000 nM
